Source: PubChem BioAssay (NCI)
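These data come from cells grown in 96-well plates and exposed to compound for 48 hours at five concentrations. At the GI50, growth is halved. Definition used: TGI = concentration required for complete inhibition of growth.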

What was measured:
Experiment in all cases: growth of human tumour cells (NCI), 48 h
[1] = system: ACHN renal
[2] = system: NCI-H460 lung
[3] = system: A549 NSCLC
[4] = system: UACC-257 melanoma
[5] = system: RPMI-8226 leukemia
[6] = system: HCC-2998 colon
[7] = system: BT-549 breast
[8] = system: 786-0 renal
[9] = system: SK-MEL-28 melanoma
[10] = system: K-562 leukemia
[11] = system: SK-MEL-5 melanoma

Compound | TGI [1] [µM] | TGI [2] [µM] | TGI [3] [µM] | TGI [4] [µM] | TGI [5] [µM] | TGI [6] [µM] | TGI [7] [µM] | TGI [8] [µM] | TGI [9] [µM] | TGI [10] [µM] | TGI [11] [µM] | GI50 [1] [µM] | GI50 [2] [µM] | GI50 [3] [µM] | GI50 [4] [µM] | GI50 [5] [µM] | GI50 [6] [µM] | GI50 [7] [µM] | GI50 [9] [µM] | GI50 [11] [µM]
N#CCCCC[N+]12CN3CN(CN(C3)C1)C2 | > 100 | > 100 | > 100 | > 100 | > 100 | > 100 | > 100 | > 100 | > 100 | > 100 | > 100 | – | – | – | – | – | – | – | – | –
CC(C)=CCNc1ncnc2nc[nH]c12 | > 100 | > 100 | > 100 | > 100 | > 100 | – | > 100 | > 100 | > 100 | > 100 | > 100 | – | – | – | – | – | – | – | – | –
Nc1c2c(=O)[nH]c(=O)c2c(N)c2c(=O)c3ccccc3c(=O)c12 | 9.79 | 2.52 | > 23.1 | 3.17 | 8.53 | > 63.3 | 3.71 | 10.9 | 3.98 | > 45.9 | 0.394 | – | – | – | – | – | – | – | – | –
O=C1c2ccccc2C(=O)c2c(Nc3ccc4c5c(cccc35)C(=O)c3ccccc3-4)cccc21 | > 100 | > 100 | > 100 | > 100 | – | > 100 | > 100 | > 100 | – | > 100 | > 100 | – | – | – | – | – | – | – | – | –
N#CN=C(N)NC(=O)/C=C/C=C/c1ccc(Cl)cc1 | > 100 | > 100 | > 100 | > 100 | > 100 | – | – | > 100 | > 100 | > 100 | > 100 | – | – | – | – | – | – | – | – | –
CSc1nc(Cl)c(Br)c(Sc2nc(N)nc3nc[nH]c23)n1 | 30.3 | 20.1 | 48.7 | 30 | 16.4 | 15.2 | – | 15.2 | 24 | 13.1 | 26.4 | – | – | – | – | – | – | – | – | –
O=C(CSc1nc2ccccc2s1)c1sc2sc3ccccc3[n+]2c1[O-] | > 100 | > 100 | > 100 | > 100 | > 100 | – | > 100 | > 100 | > 100 | > 100 | > 100 | – | – | – | – | – | – | – | – | –
COc1ccc(C(=O)Cn2c(C(=O)/C=C/c3ccco3)nc3ccccc32)cc1 | > 100 | > 100 | > 100 | > 100 | 88.7 | 37.1 | > 100 | > 100 | > 100 | > 100 | > 100 | – | – | – | – | – | – | – | – | –
CN(C)c1ccc(/C=c2/c3ccccc3n3nc4ccccc4c23)cc1 | > 100 | > 100 | > 100 | > 100 | 39.1 | – | 71.5 | > 100 | > 100 | > 100 | 73.5 | – | – | – | – | – | – | – | – | –
O=c1ccc2nc(-c3ccccc3)nn(-c3ccccn3)c-2c1 | 3.17 | > 100 | > 100 | 14.6 | 63.1 | 44.5 | 56.8 | – | 29.8 | – | 33.6 | 1.7 | 70.2 | 38.4 | 3.66 | 5.32 | 20.9 | 20.8 | 12.3 | 13.9
CC(=O)OC(C)C1C2=C(C(=O)CC1(C)O)C(=O)c1c(ccc(-c3ccc4c(c3O)C(=O)C3=C(C4=O)C(C(C)OC(C)=O)C(C)(O)CC3=O)c1O)C2=O (stereo not drawn) | 3.22 | 21.7 | 18.8 | 3.48 | > 100 | 25.9 | 2.83 | 3.44 | 4.7 | > 100 | 8.22 | – | – | – | – | – | – | – | – | –
COc1ccc(C2CC(c3ccccc3)=Nc3c(-c4ccccc4)nnn32)cc1 (stereo not drawn) | > 100 | > 100 | > 100 | > 100 | 82.6 | – | – | > 100 | – | > 100 | > 100 | – | – | – | – | – | – | – | – | –
